# Source: article PMC9856672, “SGC-CAMKK2-1: A Chemical Probe for CAMKK2” (Cells, 2023)
# Key:
# PAK1 = target: T1, PAK1 (Homo sapiens, UniProt Q13153); assay: KINOMEscan at 1 μM, PAK1; assay type: binding; conditions: 1000 nM, read-out: Percent Control
# T1 construct: purchased Eurofins DiscoverX KINOMEscan
# From the text: (§1) Supplement cells-12-00287-s001.zip/File S2. KinomeScan data for the CAMKK2 probe and negative control.xlsx, sheet "SGC-CAMKK2-1N" | column: Percent Control
# MEK6 = target: T2, MEK6 (Homo sapiens, UniProt P52564); assay: KINOMEscan at 1 μM, MEK6; assay type: binding; conditions: 1000 nM, read-out: Percent Control
# T2 construct: purchased Eurofins DiscoverX KINOMEscan
# From the text: as §1
# LRRK2 = target: T3, LRRK2 (Homo sapiens, UniProt Q5S007); assay: KINOMEscan at 1 μM, LRRK2; assay type: binding; conditions: 1000 nM, read-out: Percent Control
# T3 construct: purchased Eurofins DiscoverX KINOMEscan
# From the text: as §1
# PIK4CB = target: T4, PIK4CB (Homo sapiens, UniProt Q9UBF8); assay: KINOMEscan at 1 μM, PIK4CB; assay type: binding; conditions: 1000 nM, read-out: Percent Control
# T4 construct: purchased Eurofins DiscoverX KINOMEscan
# From the text: as §1
# EPHA1 = target: T5, EPHA1 (Homo sapiens, UniProt P21709); assay: KINOMEscan at 1 μM, EPHA1; assay type: binding; conditions: 1000 nM, read-out: Percent Control
# T5 construct: purchased Eurofins DiscoverX KINOMEscan
# From the text: as §1
# AURKB = target: T6, AURKB (Homo sapiens, UniProt Q96GD4); assay: KINOMEscan at 1 μM, AURKB; assay type: binding; conditions: 1000 nM, read-out: Percent Control
# T6 construct: purchased Eurofins DiscoverX KINOMEscan
# From the text: as §1
# IRAK1 = target: T7, IRAK1 (Homo sapiens, UniProt P51617); assay: KINOMEscan at 1 μM, IRAK1; assay type: binding; conditions: 1000 nM, read-out: Percent Control
# T7 construct: purchased Eurofins DiscoverX KINOMEscan
# From the text: as §1
# NEK3 = target: T8, NEK3 (Homo sapiens, UniProt P51956); assay: KINOMEscan at 1 μM, NEK3; assay type: binding; conditions: 1000 nM, read-out: Percent Control
# T8 construct: purchased Eurofins DiscoverX KINOMEscan
# From the text: as §1
# IRAK4 = target: T9, IRAK4 (Homo sapiens, UniProt Q9NWZ3); assay: KINOMEscan at 1 μM, IRAK4; assay type: binding; conditions: 1000 nM, read-out: Percent Control
# T9 construct: purchased Eurofins DiscoverX KINOMEscan
# T9 sequence (Q9NWZ3 whole entry): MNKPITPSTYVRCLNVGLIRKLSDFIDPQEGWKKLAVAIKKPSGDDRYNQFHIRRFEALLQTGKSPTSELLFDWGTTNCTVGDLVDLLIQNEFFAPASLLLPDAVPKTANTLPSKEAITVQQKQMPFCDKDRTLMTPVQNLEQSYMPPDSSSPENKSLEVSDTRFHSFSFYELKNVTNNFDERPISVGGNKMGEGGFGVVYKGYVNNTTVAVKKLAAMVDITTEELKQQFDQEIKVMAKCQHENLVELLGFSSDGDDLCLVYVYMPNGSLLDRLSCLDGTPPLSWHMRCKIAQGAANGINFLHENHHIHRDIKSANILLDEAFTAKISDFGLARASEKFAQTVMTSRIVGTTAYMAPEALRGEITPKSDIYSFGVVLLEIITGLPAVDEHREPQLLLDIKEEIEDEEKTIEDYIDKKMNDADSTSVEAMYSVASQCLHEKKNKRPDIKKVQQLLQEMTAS
# From the text: as §1
# PIK3CA = target: T10, PIK3CA (Homo sapiens, UniProt P42336); assay: KINOMEscan at 1 μM, PIK3CA; assay type: binding; conditions: 1000 nM, read-out: Percent Control
# T10 construct: purchased Eurofins DiscoverX KINOMEscan
# T10 sequence (P42336 whole entry): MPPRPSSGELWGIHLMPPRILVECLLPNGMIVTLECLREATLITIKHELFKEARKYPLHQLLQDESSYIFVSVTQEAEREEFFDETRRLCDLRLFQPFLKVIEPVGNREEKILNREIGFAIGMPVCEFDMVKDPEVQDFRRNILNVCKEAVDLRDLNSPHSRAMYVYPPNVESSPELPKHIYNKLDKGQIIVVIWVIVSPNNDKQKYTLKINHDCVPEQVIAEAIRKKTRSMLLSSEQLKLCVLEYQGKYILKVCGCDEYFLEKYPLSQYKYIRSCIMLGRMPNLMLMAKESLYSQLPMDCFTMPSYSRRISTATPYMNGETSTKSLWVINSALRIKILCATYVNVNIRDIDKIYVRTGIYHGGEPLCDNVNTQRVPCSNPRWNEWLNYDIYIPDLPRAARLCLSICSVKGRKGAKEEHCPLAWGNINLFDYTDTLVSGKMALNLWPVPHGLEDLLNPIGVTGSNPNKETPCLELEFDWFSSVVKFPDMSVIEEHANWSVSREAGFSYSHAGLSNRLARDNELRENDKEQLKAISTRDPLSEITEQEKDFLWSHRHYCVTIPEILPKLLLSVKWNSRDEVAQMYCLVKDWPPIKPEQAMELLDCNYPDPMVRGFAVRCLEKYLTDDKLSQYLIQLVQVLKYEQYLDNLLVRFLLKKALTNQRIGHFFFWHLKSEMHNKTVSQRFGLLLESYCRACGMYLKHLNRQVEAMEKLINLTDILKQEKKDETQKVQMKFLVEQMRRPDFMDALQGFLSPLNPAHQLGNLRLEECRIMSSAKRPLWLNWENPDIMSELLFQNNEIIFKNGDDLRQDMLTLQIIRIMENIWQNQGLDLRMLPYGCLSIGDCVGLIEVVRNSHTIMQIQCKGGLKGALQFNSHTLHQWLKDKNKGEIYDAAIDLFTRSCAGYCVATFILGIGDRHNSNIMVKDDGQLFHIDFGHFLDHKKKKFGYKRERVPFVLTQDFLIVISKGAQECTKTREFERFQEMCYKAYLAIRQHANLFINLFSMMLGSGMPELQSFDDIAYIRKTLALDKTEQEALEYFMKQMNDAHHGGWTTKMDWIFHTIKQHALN
# From the text: as §1
# NIM1 = target: T11, NIM1 (Homo sapiens, UniProt Q8IY84); assay: KINOMEscan at 1 μM, NIM1; assay type: binding; conditions: 1000 nM, read-out: Percent Control
# T11 construct: purchased Eurofins DiscoverX KINOMEscan
# From the text: as §1
# PKNB(M.tuberculosis) = target: T12, PKNB(M.tuberculosis) (Mycobacterium tuberculosis, UniProt P9WI81); assay: KINOMEscan at 1 μM, PKNB(M.tuberculosis); assay type: binding; conditions: 1000 nM, read-out: Percent Control
# T12 construct: purchased Eurofins DiscoverX KINOMEscan
# From the text: as §1
# ERK8 = target: T13, ERK8 (Homo sapiens, UniProt Q8TD08); assay: KINOMEscan at 1 μM, ERK8; assay type: binding; conditions: 1000 nM, read-out: Percent Control
# T13 construct: purchased Eurofins DiscoverX KINOMEscan
# T13 sequence (Q8TD08 whole entry): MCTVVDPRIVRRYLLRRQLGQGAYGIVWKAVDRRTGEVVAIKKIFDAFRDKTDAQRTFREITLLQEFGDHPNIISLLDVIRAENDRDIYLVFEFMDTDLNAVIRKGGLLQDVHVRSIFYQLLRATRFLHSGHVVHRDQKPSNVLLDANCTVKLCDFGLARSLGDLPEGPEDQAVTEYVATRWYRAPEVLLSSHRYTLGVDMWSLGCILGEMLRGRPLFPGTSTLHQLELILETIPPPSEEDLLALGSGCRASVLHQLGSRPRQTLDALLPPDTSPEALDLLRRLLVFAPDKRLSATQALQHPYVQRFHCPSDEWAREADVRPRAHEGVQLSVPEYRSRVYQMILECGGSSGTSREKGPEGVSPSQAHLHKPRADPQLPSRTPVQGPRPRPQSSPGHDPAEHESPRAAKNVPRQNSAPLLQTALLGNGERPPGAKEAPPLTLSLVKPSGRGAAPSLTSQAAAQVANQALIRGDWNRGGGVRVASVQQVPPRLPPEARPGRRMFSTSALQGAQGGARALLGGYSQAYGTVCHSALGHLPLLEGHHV
# From the text: as §1
# HUNK = target: T14, HUNK (Homo sapiens, UniProt P57058); assay: KINOMEscan at 1 μM, HUNK; assay type: binding; conditions: 1000 nM, read-out: Percent Control
# T14 construct: purchased Eurofins DiscoverX KINOMEscan
# T14 sequence (P57058 whole entry): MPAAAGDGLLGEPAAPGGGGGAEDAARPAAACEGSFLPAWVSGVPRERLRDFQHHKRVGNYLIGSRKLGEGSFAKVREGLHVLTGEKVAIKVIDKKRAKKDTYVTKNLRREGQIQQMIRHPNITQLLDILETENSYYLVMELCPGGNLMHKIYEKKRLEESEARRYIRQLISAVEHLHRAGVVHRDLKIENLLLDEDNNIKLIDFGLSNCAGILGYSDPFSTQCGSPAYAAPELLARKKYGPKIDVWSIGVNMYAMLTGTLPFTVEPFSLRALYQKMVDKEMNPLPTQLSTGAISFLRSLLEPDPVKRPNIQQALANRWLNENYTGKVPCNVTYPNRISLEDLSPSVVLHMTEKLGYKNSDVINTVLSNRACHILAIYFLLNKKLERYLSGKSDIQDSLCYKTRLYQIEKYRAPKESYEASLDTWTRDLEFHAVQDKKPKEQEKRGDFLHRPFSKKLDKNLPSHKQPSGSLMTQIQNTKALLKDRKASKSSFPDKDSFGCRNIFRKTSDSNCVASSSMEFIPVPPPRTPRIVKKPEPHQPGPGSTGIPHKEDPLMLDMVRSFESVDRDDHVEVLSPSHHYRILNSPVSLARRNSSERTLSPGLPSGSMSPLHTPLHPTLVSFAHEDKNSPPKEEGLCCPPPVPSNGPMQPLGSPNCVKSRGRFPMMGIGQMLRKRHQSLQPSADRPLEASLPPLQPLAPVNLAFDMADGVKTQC
# From the text: as §1
# PLK3 = target: T15, PLK3 (Homo sapiens, UniProt Q9H4B4); assay: KINOMEscan at 1 μM, PLK3; assay type: binding; conditions: 1000 nM, read-out: Percent Control
# T15 construct: purchased Eurofins DiscoverX KINOMEscan
# From the text: as §1
# LYN = target: T16, LYN (Homo sapiens, UniProt P07948); assay: KINOMEscan binding assay at 1 μM, LYN; conditions: Compound Concentration 1000 nM; read-out: Percent Control
# T16 construct: purchased Eurofins DiscoverX KINOMEscan
# T16 sequence (P07948 whole entry): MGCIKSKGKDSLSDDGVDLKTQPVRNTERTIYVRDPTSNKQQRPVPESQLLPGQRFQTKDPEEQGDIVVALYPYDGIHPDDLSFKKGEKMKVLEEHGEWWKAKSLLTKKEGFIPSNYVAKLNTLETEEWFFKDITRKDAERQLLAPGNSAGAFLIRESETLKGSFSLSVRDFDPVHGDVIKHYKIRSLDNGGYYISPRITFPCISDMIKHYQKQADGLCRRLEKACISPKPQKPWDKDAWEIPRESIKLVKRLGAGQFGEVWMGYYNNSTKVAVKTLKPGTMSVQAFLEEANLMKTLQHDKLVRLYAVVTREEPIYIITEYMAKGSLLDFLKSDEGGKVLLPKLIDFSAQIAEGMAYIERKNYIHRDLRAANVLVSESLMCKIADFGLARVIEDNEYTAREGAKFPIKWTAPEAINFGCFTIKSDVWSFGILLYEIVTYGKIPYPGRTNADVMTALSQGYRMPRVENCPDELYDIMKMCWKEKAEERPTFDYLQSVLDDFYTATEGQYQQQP
# From the text: as §1
# [1] = target: T17, RPS6KA5(Kin.Dom.1-N-terminal) (Homo sapiens, UniProt O75582); assay: KINOMEscan binding assay at 1 μM, RPS6KA5(Kin.Dom.1-N-terminal); conditions: Compound Concentration 1000 nM; read-out: Percent Control
# T17 construct: RPS6KA5(Kin.Dom.1-N-terminal); purchased Eurofins DiscoverX KINOMEscan
# T17 sequence (O75582 1-387 limits assumed): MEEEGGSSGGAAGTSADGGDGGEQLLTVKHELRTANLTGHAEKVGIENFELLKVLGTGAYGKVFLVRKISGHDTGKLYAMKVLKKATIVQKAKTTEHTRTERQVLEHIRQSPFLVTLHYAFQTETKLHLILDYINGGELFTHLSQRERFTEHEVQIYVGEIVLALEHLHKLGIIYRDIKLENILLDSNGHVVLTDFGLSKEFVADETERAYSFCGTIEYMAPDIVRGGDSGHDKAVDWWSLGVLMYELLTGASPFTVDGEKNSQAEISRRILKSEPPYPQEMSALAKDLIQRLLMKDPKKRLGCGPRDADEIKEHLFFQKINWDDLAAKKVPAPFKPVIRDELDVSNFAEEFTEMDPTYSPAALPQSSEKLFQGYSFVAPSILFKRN
# From the text: as §1
# YANK2 = target: T18, YANK2 (Homo sapiens, UniProt Q9NY57); assay: KINOMEscan binding assay at 1 μM, YANK2; conditions: Compound Concentration 1000 nM; read-out: Percent Control
# T18 construct: purchased Eurofins DiscoverX KINOMEscan
# From the text: as §1
# PIK3CG = target: T19, PIK3CG (Homo sapiens, UniProt P48736); assay: KINOMEscan 1 μM, PIK3CG; assay type: binding; conditions: 1000 nM; Entrez PIK3CG; read-out: Percent Control
# T19 construct: purchased Eurofins DiscoverX KINOMEscan
# From the text: (§2) Supplement cells-12-00287-s001.zip/File S2. KinomeScan data for the CAMKK2 probe and negative control.xlsx, sheet "SGC-CAMKK2-1" | column: Percent Control
# CSNK1A1L = target: T20, CSNK1A1L (Homo sapiens, UniProt Q8N752); assay: KINOMEscan 1 μM, CSNK1A1L; assay type: binding; conditions: 1000 nM; Entrez CSNK1A1L; read-out: Percent Control
# T20 construct: purchased Eurofins DiscoverX KINOMEscan
# From the text: as §2
# TGFBR2 = target: T21, TGFBR2 (Homo sapiens, UniProt P37173); assay: KINOMEscan 1 μM, TGFBR2; assay type: binding; conditions: 1000 nM; Entrez TGFBR2; read-out: Percent Control
# T21 construct: purchased Eurofins DiscoverX KINOMEscan
# T21 sequence (P37173 23-567): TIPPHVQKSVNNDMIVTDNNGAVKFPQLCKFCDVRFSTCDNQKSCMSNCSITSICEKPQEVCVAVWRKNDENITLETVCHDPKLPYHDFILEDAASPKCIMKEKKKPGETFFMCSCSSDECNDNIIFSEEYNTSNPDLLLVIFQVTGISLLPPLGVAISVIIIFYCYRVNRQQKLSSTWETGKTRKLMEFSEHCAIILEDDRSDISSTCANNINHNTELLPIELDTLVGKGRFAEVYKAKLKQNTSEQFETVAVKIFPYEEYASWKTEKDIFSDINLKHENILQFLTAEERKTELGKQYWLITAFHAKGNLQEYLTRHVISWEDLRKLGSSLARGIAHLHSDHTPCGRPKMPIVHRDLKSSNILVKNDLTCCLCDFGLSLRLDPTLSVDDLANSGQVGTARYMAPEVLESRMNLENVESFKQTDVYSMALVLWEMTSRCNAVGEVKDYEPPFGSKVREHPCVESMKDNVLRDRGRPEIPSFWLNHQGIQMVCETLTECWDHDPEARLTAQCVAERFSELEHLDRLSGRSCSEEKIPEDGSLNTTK
# From the text: as §2
# ABL2 = target: T22, ABL2 (Homo sapiens, UniProt P42684); assay: KINOMEscan 1 μM, ABL2; assay type: binding; conditions: 1000 nM; Entrez ABL2; read-out: Percent Control
# T22 construct: purchased Eurofins DiscoverX KINOMEscan
# From the text: as §2
# EPHB3 = target: T23, EPHB3 (Homo sapiens, UniProt P54753); assay: KINOMEscan 1 μM, EPHB3; assay type: binding; conditions: 1000 nM; Entrez EPHB3; read-out: Percent Control
# T23 construct: purchased Eurofins DiscoverX KINOMEscan
# From the text: as §2
# ADCK4 = target: T24, ADCK4 (Homo sapiens, UniProt Q96D53); assay: KINOMEscan 1 μM, ADCK4; assay type: binding; conditions: 1000 nM; Entrez ADCK4; read-out: Percent Control
# T24 construct: purchased Eurofins DiscoverX KINOMEscan
# From the text: as §2
# ANKK1 = target: T25, ANKK1 (Homo sapiens, UniProt Q8NFD2); assay: KINOMEscan 1 μM, ANKK1; assay type: binding; conditions: 1000 nM; Entrez ANKK1; read-out: Percent Control
# T25 construct: purchased Eurofins DiscoverX KINOMEscan
# From the text: as §2
# ASK1 = target: T26, ASK1 (Homo sapiens, UniProt Q99683); assay: KINOMEscan 1 μM, ASK1; assay type: binding; conditions: 1000 nM; Entrez MAP3K5; read-out: Percent Control
# T26 construct: purchased Eurofins DiscoverX KINOMEscan
# From the text: as §2
# ERN1 = target: T27, ERN1 (Homo sapiens, UniProt O75460); assay: KINOMEscan 1 μM, ERN1; assay type: binding; conditions: 1000 nM; Entrez ERN1; read-out: Percent Control
# T27 construct: purchased Eurofins DiscoverX KINOMEscan
# From the text: as §2
# FGFR1 = target: T28, FGFR1 (Homo sapiens, UniProt P11362); assay: KINOMEscan 1 μM, FGFR1; assay type: binding; conditions: 1000 nM; Entrez FGFR1; read-out: Percent Control
# T28 construct: purchased Eurofins DiscoverX KINOMEscan
# From the text: as §2
# GRK4 = target: T29, GRK4 (Homo sapiens, UniProt P32298); assay: KINOMEscan 1 μM, GRK4; assay type: binding; conditions: 1000 nM; Entrez GRK4; read-out: Percent Control
# T29 construct: purchased Eurofins DiscoverX KINOMEscan
# From the text: as §2
# KIT(V559D,T670I) = target: T30, KIT(V559D,T670I) (Homo sapiens, UniProt P10721, T670I/V559D); assay: KINOMEscan 1 μM, KIT(V559D,T670I); assay type: binding; conditions: 1000 nM; Entrez KIT; read-out: Percent Control
# T30 construct: purchased Eurofins DiscoverX KINOMEscan
# From the text: as §2
# MERTK = target: T31, MERTK (Homo sapiens, UniProt Q12866); assay: KINOMEscan 1 μM, MERTK; assay type: binding; conditions: 1000 nM; Entrez MERTK; read-out: Percent Control
# T31 construct: purchased Eurofins DiscoverX KINOMEscan
# From the text: as §2
# RET(M918T) = target: T32, RET(M918T) (Homo sapiens, UniProt P07949, M918T); assay: DiscoverX KINOMEscan binding assay at 1 μM, RET(M918T); conditions: Compound Concentration 1000 nM, read-out: Percent Control
# T32 construct: purchased Eurofins DiscoverX KINOMEscan
# From the text: as §2
# TGFBR1 = target: T33, TGFBR1 (Homo sapiens, UniProt P36897); assay: DiscoverX KINOMEscan binding assay at 1 μM, TGFBR1; conditions: Compound Concentration 1000 nM, read-out: Percent Control
# T33 construct: purchased Eurofins DiscoverX KINOMEscan
# From the text: as §2
# [2] = target: T34, TYK2(JH2domain-pseudokinase) (Homo sapiens, UniProt P29597); assay: DiscoverX KINOMEscan binding assay at 1 μM, TYK2(JH2domain-pseudokinase); conditions: Compound Concentration 1000 nM, read-out: Percent Control
# T34 construct: TYK2(JH2domain-pseudokinase); purchased Eurofins DiscoverX KINOMEscan
# From the text: as §2
# T1 sequence (Q13153 whole entry): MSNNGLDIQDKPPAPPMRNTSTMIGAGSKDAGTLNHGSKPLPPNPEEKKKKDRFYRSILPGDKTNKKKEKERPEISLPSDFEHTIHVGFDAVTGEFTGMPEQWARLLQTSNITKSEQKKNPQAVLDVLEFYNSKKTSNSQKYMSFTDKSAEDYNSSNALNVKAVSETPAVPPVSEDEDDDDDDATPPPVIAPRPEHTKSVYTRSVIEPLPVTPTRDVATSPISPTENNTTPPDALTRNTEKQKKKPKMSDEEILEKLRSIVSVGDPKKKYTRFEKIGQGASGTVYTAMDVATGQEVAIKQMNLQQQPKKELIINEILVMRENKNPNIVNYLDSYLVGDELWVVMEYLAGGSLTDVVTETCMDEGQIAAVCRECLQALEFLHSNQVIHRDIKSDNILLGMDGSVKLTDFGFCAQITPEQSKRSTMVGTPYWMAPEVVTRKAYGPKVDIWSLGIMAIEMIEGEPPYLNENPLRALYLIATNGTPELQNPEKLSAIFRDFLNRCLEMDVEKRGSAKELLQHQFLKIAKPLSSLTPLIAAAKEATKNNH
structure (smiles),measurement,setting,value
O=C(O)c1ccc(-c2coc3ncc(-c4ccccc4)cc23)cc1Cl [SGC-CAMKK2-1N (UNC-YL-83)],remaining binding at 1 µM,PAK1,42%
same,remaining binding at 1 µM,MEK6,46%
same,remaining binding at 1 µM,LRRK2,47%
same,remaining binding at 1 µM,PIK4CB,54%
same,remaining binding at 1 µM,EPHA1,61%
same,remaining binding at 1 µM,AURKB,62%
same,remaining binding at 1 µM,IRAK1,68%
same,remaining binding at 1 µM,NEK3,71%
same,remaining binding at 1 µM,IRAK4,72%
same,remaining binding at 1 µM,PIK3CA,74%
same,remaining binding at 1 µM,NIM1,81%
same,remaining binding at 1 µM,PKNB(M.tuberculosis),83%
same,remaining binding at 1 µM,ERK8,86%
same,remaining binding at 1 µM,HUNK,87%
same,remaining binding at 1 µM,PLK3,91%
same,remaining binding at 1 µM,LYN,100%
same,remaining binding at 1 µM,[1],100%
same,remaining binding at 1 µM,YANK2,100%
Cc1cccc(-c2cnc3occ(-c4ccc(C(=O)O)c(C5CCCC5)c4)c3c2)c1 [SGC-CAMKK2-1 (YL-36)],remaining binding at 1 µM,PIK3CG,76%
same,remaining binding at 1 µM,CSNK1A1L,88%
same,remaining binding at 1 µM,TGFBR2,91%
same,remaining binding at 1 µM,ABL2,92%
same,remaining binding at 1 µM,EPHB3,96%
same,remaining binding at 1 µM,ADCK4,100%
same,remaining binding at 1 µM,ANKK1,100%
same,remaining binding at 1 µM,ASK1,100%
same,remaining binding at 1 µM,ERN1,100%
same,remaining binding at 1 µM,FGFR1,100%
same,remaining binding at 1 µM,GRK4,100%
same,remaining binding at 1 µM,"KIT(V559D,T670I)",100%
same,remaining binding at 1 µM,MERTK,100%
same,remaining binding at 1 µM,RET(M918T),100%
same,remaining binding at 1 µM,TGFBR1,100%
same,remaining binding at 1 µM,[2],100%
